# Tests used:
# Type in all cases: in vivo, Albino Wistar rat
# [1] = Rat body weight in the sodium arsanilate vestibular dysfunction study; details: rats, group value
# Source text: (§1) “Evaluation of test substance on sodium arsanilate induced vestibular dysfunction (Vertigo disorder) in wistar rats”.
# (§2) • Test Species: Rat • Strain: Albino Wistar • Sex: Male/Female • Age: 6-8 Weeks • Body Weight: 180-200 g • Source: In house breed • Total No. of Animals: 42 Animals (7 groups of 6 animals each) • Feed: Normal chow diet (Purina lab diet 5L79 Rat and Mouse 18%) (PMI Nutrition International) Environmental Conditions:
# (§3) All the animals were acclimatized for at least 5 days under controlled environmental condition. Total 42 animals were divided into seven groups consisting of 6 animals per group. Normal control (G1) group receiving vehicle, disease control (G2) group receiving sodium arsanilate injection only, standard group (G3) receiving reference standard (vertin) and treatment groups G4, G5, G6 & G7 were treated with the test substances. All the groups (except normal control group) were induced with sodium arsanilate via intratymphanic injection. All the treatment groups were administered daily for 7 consecutive days.
# Individual body weights were recorded at receipt, on the day of randomization, on the first day of treatment before dosing and weekly once thereafter throughout the treatment period. The body weight changes for all the animals were calculated and reported along with the body weight data.
# [2] = Rat feed consumption in the sodium arsanilate vestibular dysfunction study; details: rats, group value
# Source text: as §1, §2, §3
# The feed consumption was calculated and reported on a daily basis throughout the study period.
# [3] = tested on: sodium arsanilate induced vestibular dysfunction (Vertigo disorder) in wistar rats; assay: Air righting reflex (air reflecting index)
# Source text: as §1
# (§4) Vestibular dysfunction was induced in rats by intratympanic injection of sodium arsanilate an ototoxic compound. Sodium arsanilate is an arsenic derivative and intratympanic injection result was vestibular nerve degeneration in brain stem with concomitant loss of labyrinthine righting and reduced postural support with exaggerated head dorsiflexion.
# as §3
# A sponge was spread on a flat surface and the animals were placed in a supine position in the air 50 cm away above the sponge, following which the animal was dropped horizontally.
# Four-legged smooth landing on the ground was considered as positive (normal animal), whereas the body or other regions landing first was considered vestibular dysfunction animals. The positive landing rate (%) of each rat in each group was recorded.
# [4] = tested on: sodium arsanilate induced vestibular dysfunction (Vertigo disorder) in wistar rats; assay: Contact righting reflex
# Source text: as §1, §4, §3
# The rats were placed in a syringe core tube in a supine position, following which the recovery time for position correction to be recorded. Normal rats turned over their body position in a few seconds.
# [5] = tested on: sodium arsanilate induced vestibular dysfunction (Vertigo disorder) in wistar rats; assay: Open field test
# Source text: as §1, §4, §3
# The open-field was circular, with a diameter of 90 cm, and enclosed by a wall 30 cm high. The floor and wall of the open-field was black and the floor was divided into 25 equal area sections by thin white lines. The floor was covered with a transparent plastic coating. The open-field apparatus was located inside a large wooden frame which surrounded on all sides by black curtains. The field was illuminated by two 60-W fluorescent lights located 100 cm above the floor.
# At the start of each session the rats were placed in one of the peripheral sections of the open-field and the animal's behavior was monitored by an observer for 10 consecutive minutes. […] At the end of each session the rat was returned to its home cage and the floor of the open-field was cleaned and sponged over with a weak vinegar solution to remove any residual odors.
# [6] = open field test, wrt. disease control G2
compound,measurement,setting,value
"CC(=O)NC(CC(C)C)C(=O)O (racemic) [Group 4, N-Acetyl-DL-leucine enantiomerically enriched (EE) with L-leucine]","Body Weight, End of the treatment",[1]; after 7 days daily treatment,190.77 gm
same,"Body Weight, Initial",[1]; initial,189.15 gm
same,"Feed Consumption, 0 day",[2]; 0 day,16.00 gm
same,"Feed Consumption, 7th day",[2]; 7th day,16.67 gm
same,Air Righting Reflex (% successfully righted within 5 s),[3]; animal 1,40%
same,"Air Righting Reflex, Successful out of 5","[3]; animal 1, end of 7-day treatment",2
same,Air Righting Reflex (% successfully righted within 5 s),[3]; animal 2,60%
same,"Air Righting Reflex, Successful out of 5","[3]; animal 2, end of 7-day treatment",3
same,Air Righting Reflex (% successfully righted within 5 s),[3]; animal 3,40%
same,"Air Righting Reflex, Successful out of 5","[3]; animal 3, end of 7-day treatment",2
same,Air Righting Reflex (% successfully righted within 5 s),[3]; animal 4,40%
same,"Air Righting Reflex, Successful out of 5","[3]; animal 4, end of 7-day treatment",2
same,Air Righting Reflex (% successfully righted within 5 s),[3]; animal 5,60%
same,"Air Righting Reflex, Successful out of 5","[3]; animal 5, end of 7-day treatment",3
same,Air Righting Reflex (% successfully righted within 5 s),[3]; animal 6,40%
same,"Air Righting Reflex, Successful out of 5","[3]; animal 6, end of 7-day treatment",2
same,"Air Righting Reflex (% of Rats that successfully righted themselves within 5 s), Average",[3]; group average of 6 animals,46.67%
same,Contact righting reflex (time),"[4]; animal 1, recovery time for position correction",27 s
same,Contact righting reflex (time),"[4]; animal 2, recovery time for position correction",26 s
same,Contact righting reflex (time),"[4]; animal 3, recovery time for position correction",25 s
same,Contact righting reflex (time),"[4]; animal 4, recovery time for position correction",28 s
same,Contact righting reflex (time),"[4]; animal 5, recovery time for position correction",27 s
same,Contact righting reflex (time),"[4]; animal 6, recovery time for position correction",28 s
same,"Contact righting reflex (time), Average",[4]; group average of 6 animals,26.83 s
same,"contact righting reflex, improvement (wrt. the Disease Control)",[4]; wrt. the Disease Control,up to 34%
same,Ambulation Score [the number of open-field sections entered by the rat],[5]; animal 1,210
same,Defecation [the number of fecal boli deposited in the open-field],[5]; animal 1,2
same,Grooming [the number of grooming bouts exhibited by the rat],[5]; animal 1,3
same,Rearing Responses [the number of times the animal raised both forefeet off the floor and extended its body],[5]; animal 1,4
same,Ambulation Score [the number of open-field sections entered by the rat],[5]; animal 2,200
same,Defecation [the number of fecal boli deposited in the open-field],[5]; animal 2,3
same,Grooming [the number of grooming bouts exhibited by the rat],[5]; animal 2,4
same,Rearing Responses [the number of times the animal raised both forefeet off the floor and extended its body],[5]; animal 2,3
same,Ambulation Score [the number of open-field sections entered by the rat],[5]; animal 3,220
same,Defecation [the number of fecal boli deposited in the open-field],[5]; animal 3,4
same,Grooming [the number of grooming bouts exhibited by the rat],[5]; animal 3,3
same,Rearing Responses [the number of times the animal raised both forefeet off the floor and extended its body],[5]; animal 3,5
same,Ambulation Score [the number of open-field sections entered by the rat],[5]; animal 4,220
same,Defecation [the number of fecal boli deposited in the open-field],[5]; animal 4,2
same,Grooming [the number of grooming bouts exhibited by the rat],[5]; animal 4,3
same,Rearing Responses [the number of times the animal raised both forefeet off the floor and extended its body],[5]; animal 4,4
same,Ambulation Score [the number of open-field sections entered by the rat],[5]; animal 5,210
same,Defecation [the number of fecal boli deposited in the open-field],[5]; animal 5,3
same,Grooming [the number of grooming bouts exhibited by the rat],[5]; animal 5,4
same,Rearing Responses [the number of times the animal raised both forefeet off the floor and extended its body],[5]; animal 5,6
same,Ambulation Score [the number of open-field sections entered by the rat],[5]; animal 6,220
same,Defecation [the number of fecal boli deposited in the open-field],[5]; animal 6,4
same,Grooming [the number of grooming bouts exhibited by the rat],[5]; animal 6,2
same,Rearing Responses [the number of times the animal raised both forefeet off the floor and extended its body],[5]; animal 6,4
same,"Ambulation Score [the number of open-field sections entered by the rat], Average",[5]; group average of 6 animals,213.33
same,"Defecation [the number of fecal boli deposited in the open-field], Average",[5]; group average of 6 animals,3.00
same,"Grooming [the number of grooming bouts exhibited by the rat], Average",[5]; group average of 6 animals,3.17
same,"Rearing Responses [the number of times the animal raised both forefeet off the floor and extended its body], Average",[5]; group average of 6 animals,4.33
same,% Improvement in Ambulation score wrt. G2,[5]; [6],15.23%
same,% Improvement in Defecation wrt. G2,[5]; [6],30.77%
same,% Improvement in Grooming wrt. G2,[5]; [6],59.57%
same,% Improvement in Rearing Responses wrt. G2,[5]; [6],40.62%

# Source: patent publication US12708640B2, “Synergistic nutritional compositions for treating vestibular associated neurodegenerative diseases” (CELAGENEX RESEARCH (INDIA) PVT. LTD., priority 2021, dated 2026)
